These are literature values, as cited in patent US20240307316A1, “ANTIOXIDANT AND OXYGEN-RELEASING LIGNIN COMPOSITES TO ACCELERATE WOUND HEALING” (Board of Supervisors of Louisiana State University and …, priority 2023, published 2024).

SMILES strings stand for the structures. Where two headings read alike, the source gives them in different places.

In the case of `[Mg+2].[O-][O-]` [MgO2, magnesium peroxide], the solubility (at 18° C.) was 860 µg/mL.

Take `[Ca+2].[O-][O-]` [CaO2, Calcium peroxide]: the solubility limit was 1650 µg/mL. Besides, the solubility (at 20° C.) is 1650 µg/mL. Besides, the concentrations exhibiting cytotoxicity result with 3T3 FBs was “higher than 10 mg/mL”.

In general, solubility refers to the dissolved amount per volume that the medium holds.
